From patent US11192889B2, “Tetrahydronaphthyridinepentanamide integrin antagonists” (The Rockefeller University, priority 2016, dated 2021)
Several values for one entry are separate records, joined by “and”; a condition that tells them apart may be missing. Identical values can stand only once.

Key:
HEK-293-αVβ3 cells [1] = biological target: T1, HEK-293-αVβ3 cells (Homo sapiens, UniProt P05106+P06756); test: αVβ3 Cell Adhesion to Fibrinogen Assay; type: cell-based; set-up: IC50; other: dose reducing by 50% the adhesion of HEK-293-αVβ3 cells to fibrinogen; untreated cells 100% adhesion, 10 mM EDTA 0%; conditions: for IC50: dose reducing by 50% the adhesion of HEK-293-αVβ3 cells to fibrinogen, separate determinations listed
Description: (§1) HEK-293 Cells Expressing αVβ3. HEK-293 cells were transfected using lipofectamine 2000 (Invitrogen #11668030) with the cDNA for αV using the pEF1/V5-His A vector and the cDNA for β3 using the vector pcDNA3.1. Cells expressing αVβ3 were identified by their reaction with murine monoclonal antibodies (mAbs) LM609 and 7E3, and stable cell lines were established by repetitive sorting using LM609. […] HEK-293-αVβ3 cells for assays are counted in an automated cell counter (ADVIA 120) and adjusted to values appropriate for each assay.
αVβ3 Cell Adhesion to Fibrinogen Assay. Polystyrene 96-well microtiter plates (Costar, 3590) are precoated with 3.5 μg/mL of purified fibrinogen (Enzyme Research Laboratories) in 0.15 M NaCl, 0.01 M Tris/HCL, pH 7.4 for 1 hour at 37° C. The wells are then washed and incubated with HEPES-Buffered Modified Tyrode's solution (HBMT; 0.128 M NaCl, 10 mM HEPES, 12 mM NaHCO3, 0.4 mM NaH2PO4, 2.7 mM KCl, 0.35% bovine serum albumin (Fisher), 0.1% glucose, pH 7.4) for 1 hour at room temperature or overnight at 4° C. Wells are washed with HBMT containing 1 mM Mg2+ and 2 mM Ca2+ and then 50 μL of HEK-293-αVβ3 cells that have been pretreated with the compound to be tested for 20 minutes at room temperature are added to each well at a concentration of 3,000 cells/μL. After 30-32 minutes the wells are washed with HBMT containing Ca2+ and Mg2+ three times and then the adherent cells are lysed and the acid phosphatase activity that is released is measured by: 1. adding phosphatase substrate (Sigma EC 224-246-5) at 2 mg/mL in 0.1 M Na citrate, pH 5.6, 0.1% triton X-100 for 1 hour at room temperature; 2. stopping the reaction by adding 50 μL of 2 M NaOH; and 3. analyzing the samples in a spectrophotometer at 405 nm. In each assay, 10 mM EDTA is used as a positive control and untreated cells are used as a negative control. The IC50 is the dose of test compound that reduces by 50% the adhesion of the HEK-293-αVβ3 cells, taking the results with untreated cells as 100% and the results in the presence of EDTA as 0%. In some instances more than one IC50 determination was made, in which case, results of separate determinations are reported. IC50's were not determined for all compounds in the table; for some of these test compounds the inhibition at specific doses are reported. In some instances, the test compound produced a greater reduction than 10 mM EDTA, and these are shown as negative numbers.

HEK-293-αVβ3 cells [2] = biological target: T1, HEK-293-αVβ3 cells; test: AP5 Binding Assay; type: cell-based; conditions: for activation at 10 µM: read-out: AP5 expression induced at the highest concentration; for EC50: concentration inducing 50% of the AP5 expression induced by 1 μM cilengitide
Description: as §1
AP5 Binding Assay. HEK-293-αVβ3 cells are harvested using 0.05% trypsin 0.5 mM EDTA, washed with HBMT once, and resuspended in HBMT containing 1 mM Mg2+ and 2 mM Ca2+. The cells are counted and adjusted to 0.5×10^6 cells per sample. The compound to be tested and fluorescently labeled mAb AP5 (either Alexa 488 or Alexa 674; 10 μg/mL) are added and incubated for 30 minutes at 37° C. The cells are then washed and analyzed by flow cytometry (BD FACSCalibur) at the appropriate wavelength for detecting the AP5 fluorophore. In each assay, cilengitide (1 μM) and 10 mM EDTA are included as positive controls and untreated cells are used as the negative control. The concentration of the test compound required to induce the expression of 50% of the AP5 expression induced by cilengitide is calculated and defined as the EC50. The EC50 for cilengitide was determined based on the expression induced by EDTA.

[3] = @10 μM, relative to AP5 expression induced by cilengitide

T1 sequence (P05106 whole entry): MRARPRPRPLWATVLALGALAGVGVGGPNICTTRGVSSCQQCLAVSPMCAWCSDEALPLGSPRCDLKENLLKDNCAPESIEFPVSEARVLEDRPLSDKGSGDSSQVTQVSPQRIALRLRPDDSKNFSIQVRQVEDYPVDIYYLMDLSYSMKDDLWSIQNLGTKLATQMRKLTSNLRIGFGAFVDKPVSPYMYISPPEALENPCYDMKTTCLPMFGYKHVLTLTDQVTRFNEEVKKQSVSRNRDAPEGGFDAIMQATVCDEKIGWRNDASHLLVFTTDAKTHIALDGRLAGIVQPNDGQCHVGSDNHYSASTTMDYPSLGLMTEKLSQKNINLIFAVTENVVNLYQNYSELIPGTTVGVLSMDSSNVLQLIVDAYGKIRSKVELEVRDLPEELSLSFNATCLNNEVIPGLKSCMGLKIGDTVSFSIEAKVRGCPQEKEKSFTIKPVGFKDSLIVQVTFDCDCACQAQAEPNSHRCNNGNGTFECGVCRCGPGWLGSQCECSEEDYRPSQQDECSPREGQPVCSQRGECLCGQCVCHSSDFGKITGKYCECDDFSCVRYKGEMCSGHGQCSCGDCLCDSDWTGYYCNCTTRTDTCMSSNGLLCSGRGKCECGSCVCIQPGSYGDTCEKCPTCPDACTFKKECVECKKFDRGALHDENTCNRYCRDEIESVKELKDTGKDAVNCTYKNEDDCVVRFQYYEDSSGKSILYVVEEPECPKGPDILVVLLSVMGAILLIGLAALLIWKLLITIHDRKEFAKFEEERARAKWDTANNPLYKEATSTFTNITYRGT
T1 sequence (P06756 whole entry): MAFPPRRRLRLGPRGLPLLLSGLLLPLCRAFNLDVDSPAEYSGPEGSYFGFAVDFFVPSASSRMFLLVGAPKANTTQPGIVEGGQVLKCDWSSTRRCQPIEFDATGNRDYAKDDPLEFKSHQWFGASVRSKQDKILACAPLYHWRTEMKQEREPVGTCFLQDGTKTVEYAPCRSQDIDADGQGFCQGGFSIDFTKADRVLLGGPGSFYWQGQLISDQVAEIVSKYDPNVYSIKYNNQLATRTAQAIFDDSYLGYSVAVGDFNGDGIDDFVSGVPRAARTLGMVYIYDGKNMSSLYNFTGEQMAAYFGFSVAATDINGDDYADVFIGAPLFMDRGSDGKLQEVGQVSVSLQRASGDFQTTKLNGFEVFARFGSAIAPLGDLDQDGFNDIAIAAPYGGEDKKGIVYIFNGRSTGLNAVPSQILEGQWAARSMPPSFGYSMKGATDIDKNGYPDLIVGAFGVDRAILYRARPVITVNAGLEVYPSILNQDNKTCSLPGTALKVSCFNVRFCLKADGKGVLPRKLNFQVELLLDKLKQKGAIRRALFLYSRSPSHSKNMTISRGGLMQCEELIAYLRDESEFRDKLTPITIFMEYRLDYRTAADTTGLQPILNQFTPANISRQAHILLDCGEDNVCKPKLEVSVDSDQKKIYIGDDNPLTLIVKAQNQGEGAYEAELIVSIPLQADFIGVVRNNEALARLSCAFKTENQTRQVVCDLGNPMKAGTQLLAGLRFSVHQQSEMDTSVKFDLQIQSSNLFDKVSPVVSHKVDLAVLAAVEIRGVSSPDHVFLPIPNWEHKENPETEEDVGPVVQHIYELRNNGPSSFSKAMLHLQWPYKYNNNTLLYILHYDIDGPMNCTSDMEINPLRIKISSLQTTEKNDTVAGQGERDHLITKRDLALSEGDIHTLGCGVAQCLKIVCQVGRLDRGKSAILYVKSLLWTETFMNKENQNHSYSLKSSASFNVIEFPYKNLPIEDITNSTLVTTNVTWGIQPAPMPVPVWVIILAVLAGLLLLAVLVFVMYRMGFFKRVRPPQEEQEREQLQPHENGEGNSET

Row | Structure (SMILES) | IC50 (HEK-293-αVβ3 cells [1]) | activation at 10 µM (HEK-293-αVβ3 cells [2]; [3]) [%] | EC50 (HEK-293-αVβ3 cells [2]) [nM] | inhibition at specific dose 0.1 (HEK-293-αVβ3 cells [1]; dose 0.1 (table in μM), untreated cells 100% adhesion, 10 mM EDTA 0%) [%] | AP5 expression induced at the highest concentration (HEK-293-αVβ3 cells [2]; [3]) [%]
1 | O=C(CCCCc1ccc2c(n1)NCCC2)NCCC(NC(=O)c1nc2ccccc2n1CC1CC1)C(=O)O (stereo not drawn) [Example 73, 2-[[1-(cyclopropylmethyl)benzimidazole-2-carbonyl]amino]-4-[5-(5,6,7,8-tetrahydro-1,8-naphthyridin-2-yl)pentanoylamino]butanoic acid] | 502 nM and 142 nM | 2.5 | > 10000 |  | 
2 | O=C(CCCCc1ccc2c(n1)NCCC2)NCCC(NC(=O)c1nc2ccccc2s1)C(=O)O (stereo not drawn) [Example 75, 2-(1,3-benzothiazole-2-carbonylamino)-4-[5-(5,6,7,8-tetrahydro-1,8-naphthyridin-2-yl)pentanoylamino]butanoic acid] | < 100 nM and 54.6 nM and 65.1 nM | 9 | > 10000 |  | 
3 | O=C(CCCCc1ccc2c(n1)NCCC2)NCCC(Nc1nc2ccccc2o1)C(=O)O (stereo not drawn) [Example 69, 2-(1,3-benzoxazol-2-ylamino)-4-[5-(5,6,7,8-tetrahydro-1,8-naphthyridin-2-yl)pentanoylamino]butanoic acid] | 211 nM | 7 | > 10000 |  | 
4 | O=C(CCCCc1ccc2c(n1)NCCC2)NCCC(NC(=O)OCc1ccc(F)c(F)c1)C(=O)O (stereo not drawn) [Example 68] | 320 nM | 9 | > 10000 |  | 
5 | O=C(CCCCc1ccc2c(n1)NCCC2)NCC[C@@H](NC(=O)c1nc2ccccc2s1)C(=O)O [Example 86, (R)-2-(benzo[d]thiazole-2-carboxamido)-4-(5-(5,6,7,8-tetrahydro-1,8-naphthyridin-2-yl)pentanamido)butanoic acid] | 129 nM and 169 nM | 7 | > 10000 |  | 
6 | O=C(CCCCc1ccc2c(n1)NCCC2)NCCC(C(=O)O)c1ccc(Oc2ccccc2)nc1 (stereo not drawn) [Example 80, 2-(6-phenoxy-3-pyridyl)-4-[5-(5,6,7,8-tetrahydro-1,8-naphthyridin-2-yl)pentanoylamino]butanoic acid] | 1570 nM and 429 nM | 7.5 | > 10000 |  | 
7 | COc1cccc(C(=O)NC(CCNC(=O)CCCCc2ccc3c(n2)NCCC3)C(=O)O)n1 (stereo not drawn) [Example 71, 2-[(6-methoxypyridine-2-carbonyl)amino]-4-[5-(5,6,7,8-tetrahydro-1,8-naphthyridin-2-yl)pentanoylamino]butanoic acid] | 1140 nM | 9 | > 10000 |  | 
8 | O=C(CCCCc1ccc2c(n1)NCCC2)NCCC(NC(=O)OCCc1ccccc1)C(=O)O (stereo not drawn) [Example 61] | 586 nM | 14 | > 10000 |  | 
9 | O=C(CCCCc1ccc2c(n1)NCCC2)NCCC(NS(=O)(=O)c1cccnc1)C(=O)O (stereo not drawn) [Example 44] | 1330 nM | 22 | > 10000 | 40 | 
10 | O=C(CCCCc1ccc2c(n1)NCCC2)NCCC(NC(=O)c1ncc(-c2ccccc2)s1)C(=O)O (stereo not drawn) [Example 72, 2-[(5-phenylthiazole-2-carbonyl)amino]-4-[5-(5,6,7,8-tetrahydro-1,8-naphthyridin-2-yl)pentanoylamino]butanoic acid] | 181 nM and 90.4 nM and 185 nM | 6 | > 10000 |  | 
11 | O=C(CCCCc1nc2c(cc1C1CC1)CCCN2)NCCC(NC(=O)OCc1ccccc1)C(=O)O (stereo not drawn) [Example 82, 2-(benzyloxycarbonyl-amino)-4-[5-(3-cyclopropyl-5,6,7,8-tetrahydro-1,8-naphthyridin-2-yl)pentanoyl-amino]butanoic acid] | 206 nM | 12 | > 10000 |  | 
12 | O=C(CCCCc1ccc2c(n1)NCCC2)NCCC(NC(=O)c1nc2ccccc2o1)C(=O)O (stereo not drawn) [Example 74, 2-(1,3-benzoxazole-2-carbonylamino)-4-[5-(5,6,7,8-tetrahydro-1,8-naphthyridin-2-yl)pentanoylamino]butanoic acid] | 115 nM | 4 | > 10000 |  | 
13 | COC(=O)NC(CCNC(=O)CCCCc1ccc2c(n1)NCCC2)C(=O)O (stereo not drawn) [Example 36] | < 100 nM | 12 | > 10000 |  | 
14 | COc1ccc(COC(=O)NC(CCNC(=O)CCCCc2ccc3c(n2)NCCC3)C(=O)O)cc1 (stereo not drawn) [Example 60] | 579 nM | 10 | > 10000 |  | 
15 | Cc1ccc(S(=O)(=O)NC(CCNC(=O)CCCCc2ccc3c(n2)NCCC3)C(=O)O)cc1 (stereo not drawn) [Example 14, 2-(p-Tolylsulfonylamino)-4-[5-(5,6,7,8-tetrahydro-1,8-naphthyridin-2-yl)pentanoylamino]butanoic acid] | 6300 nM | 7 | > 10000 |  | 
16 | O=C(CCCCc1ccc2c(n1)NCCC2)NCC[C@@H](Nc1ncc(-c2ccccc2)cn1)C(=O)O [Example 91, (R)-2-((5-phenylpyrimidin-2-yl)amino)-4-(5-(5,6,7,8-tetrahydro-1,8-naphthyridin-2-yl)pentanamido)butanoic acid] | 534 nM |  | > 10000 |  | 
17 | O=C(CCCCc1ccc2c(n1)NCCC2)NCC[C@@H](NC(=O)OCc1ccccc1)C(=O)O [Example 4, (2R)-2-(Benzyloxycarbonylamino)-4-[5-(5,6,7,8-tetrahydro-1,8-naphthyridin-2-yl)pentanoylamino]butanoic acid] | 225 nM and 773 nM and 952 nM and 537 nM and 612 nM and 683 nM | 5 | > 10000 |  | 
18 | O=C(CCCCc1ccc2c(n1)NCCC2)NCCC(NC(=O)OCc1cccc(F)c1)C(=O)O (stereo not drawn) [Example 66] | 533 nM | 12 | > 10000 |  | 
19 | CC1(C)[C@@H]2CC[C@]1(CS(=O)(=O)NC(CCNC(=O)CCCCc1ccc3c(n1)NCCC3)C(=O)O)C(=O)C2 (stereo partly drawn) [Example 50] | < 100 nM | 16 | > 10000 |  | 
20 | COc1ccc(C(CCNC(=O)CCCCc2ccc3c(n2)NCCC3)C(=O)O)cn1 (stereo not drawn) [Example 79, 2-(6-methoxy-3-pyridyl)-4-[5-(5,6,7,8-tetrahydro-1,8-naphthyridin-2-yl)pentanoylamino]butanoic acid] | 532 nM | 19 | > 10000 |  | 
21 | O=C(CCCCc1ccc2c(n1)NCCC2)NCCC(C(=O)O)c1cnc2ccccc2c1 (single isomer, unassigned) [Example 89, 2-(3-quinolyl)-4-[5-(5,6,7,8-tetrahydro-1,8-naphthyridin-2-yl)pentanoylamino]butanoic acid] | 106 nM |  | > 10000 |  | 27
